Results as given in ChEMBL document CHEMBL1149429, “Privileged structure-based quinazolinone natural product-templated libraries: identification of novel tubulin polymerization inhibitors” (Bioorg Med Chem Lett, 2006).
Calls of active or inactive are those of the source. The calls are words filed in the database; no cut-off is given here.

Columns and labels:
[1] = tested on: MDA-MB-231; assay: Antiproliferative activity against MDA-MB-231 cell line by MTS assay; assay type: functional, cell-based; details: Homo sapiens
[2] = tested on: A549; assay: Antiproliferative activity against A549 cell line by MTS assay; assay type: functional, cell-based; details: Homo sapiens
[3] = target: Tubulin (Homo sapiens) (UniProt P68371+Q9H4B7+P0DPH7+P68366+Q13509+Q71U36+P04350+Q3ZCM7+P07437+P68363+Q9BQE3+Q6PEY2+Q13885+Q9BVA1+Q9BUF5); assay: Inhibitory activity against tubulin polymerization; assay type: protein-complex assay
[4] = tested on: SF-268; assay: Antiproliferative activity against SF268 cell line by MTS assay; assay type: functional, cell-based; details: Homo sapiens
[5] = tested on: HMEC; assay: Antiproliferative activity against HMEC cell line by MTS assay; assay type: functional, cell-based; details: Homo sapiens
[6] = tested on: NCI-H460; assay: Antiproliferative activity against NCI-H460 cell line by MTS assay; assay type: functional, cell-based; details: Homo sapiens
[7] = tested on: DU-145; assay: Antiproliferative activity against DU145 cell line by MTS assay; assay type: functional, cell-based; details: Homo sapiens
[8] = target: Tubulin; assay: Effect on induction of mitotic arrest by phosphohistone H3 (pH3) assay; assay type: functional

COc1cc(/C=C2\CCCn3c2nc2ccc(C)cc2c3=O)cc(OC)c1O
IC50 [1]: > 20 µM | IC50 [2]: > 20 µM | Activity [3]: Active | IC50 [4]: 11.5 µM | IC50 [5]: > 20 µM | IC50 [6]: 3.2 µM | IC50 [7]: 14.7 µM

COc1cc(/C=C2\CCCn3c2nc2c(O)cccc2c3=O)cc(OC)c1O
IC50 [1]: 7.72 µM | EC50 [8]: 1.16 µM | IC50 [2]: 5.49 µM | Activity [3]: Active | IC50 [4]: 4.76 µM | IC50 [5]: > 20 µM | IC50 [6]: 1.36 µM | IC50 [7]: 3.11 µM

COc1cc(/C=C2\CCCn3c2nc2ccc(Br)cc2c3=O)cc(OC)c1O
IC50 [1]: > 20 µM | EC50 [8]: 2.38 µM | IC50 [2]: 11.7 µM | Activity [3]: Active | IC50 [4]: 6.72 µM | IC50 [5]: > 20 µM | IC50 [6]: 1.98 µM | IC50 [7]: 8.47 µM

COc1cc(/C=C2\CCCn3c2nc2c(OC)cccc2c3=O)cc(OC)c1O
IC50 [1]: 1.3 µM | EC50 [8]: 0.54 µM | IC50 [2]: 0.69 µM | Activity [3]: Active | IC50 [4]: 0.79 µM | IC50 [5]: > 20 µM | IC50 [6]: 0.33 µM | IC50 [7]: 0.51 µM

COc1cc(/C=C2\CCCn3c2nc2c(C)cccc2c3=O)cc(OC)c1O
IC50 [1]: 11.2 µM | EC50 [8]: 1.64 µM | IC50 [2]: 3.17 µM | Activity [3]: Active | IC50 [4]: 3.48 µM | IC50 [5]: > 20 µM | IC50 [6]: 1.5 µM | IC50 [7]: 2.63 µM

CC(=O)O[C@H]1C(=O)[C@@]2(C)[C@H]([C@H](OC(=O)c3ccccc3)[C@]3(O)C[C@H](OC(=O)[C@H](O)[C@@H](NC(=O)c4ccccc4)c4ccccc4)C(C)=C1C3(C)C)[C@]1(OC(C)=O)CO[C@@H]1C[C@@H]2O [PACLITAXEL]
EC50 [8]: 0.031 µM | IC50 [2]: 0.013 µM | IC50 [6]: 0.012 µM

COc1cc(/C=C2\CCCn3c2nc2c(C)cc(C)cc2c3=O)cc(OC)c1O
IC50 [1]: 2.09 µM | EC50 [8]: 0.26 µM | IC50 [2]: 0.55 µM | Activity [3]: Active | IC50 [4]: 0.83 µM | IC50 [5]: > 20 µM | IC50 [6]: 0.24 µM | IC50 [7]: 0.79 µM

COc1cc(/C=C2\CCCn3c2nc2ccc(F)cc2c3=O)cc(OC)c1O
IC50 [1]: > 20 µM | IC50 [2]: 9.43 µM | Activity [3]: Active | IC50 [4]: 14.1 µM | IC50 [5]: > 20 µM | IC50 [6]: 3.91 µM | IC50 [7]: 14.2 µM

COc1cc(/C=C2\CCCn3c2nc2ccc(Cl)cc2c3=O)cc(OC)c1O
IC50 [1]: > 20 µM | IC50 [2]: > 20 µM | Activity [3]: Active | IC50 [4]: 18.6 µM | IC50 [5]: > 20 µM | IC50 [6]: 8.63 µM | IC50 [7]: 18.3 µM

COc1cc(/C=C2\CCCn3c2nc2ccc(O)cc2c3=O)cc(OC)c1O
IC50 [1]: > 20 µM | IC50 [2]: > 20 µM | Activity [3]: Active | IC50 [4]: > 20 µM | IC50 [5]: > 20 µM | IC50 [6]: 14.9 µM | IC50 [7]: > 20 µM

COc1ccc2nc3n(c(=O)c2c1)CCC/C3=C\c1cc(OC)c(O)c(OC)c1
IC50 [1]: > 20 µM | IC50 [2]: > 20 µM | Activity [3]: Active | IC50 [4]: > 20 µM | IC50 [5]: > 20 µM | IC50 [6]: 3.71 µM | IC50 [7]: 10.3 µM

COc1cc(/C=C2\CCCn3c2nc2ccc(I)cc2c3=O)cc(OC)c1O
IC50 [1]: > 20 µM | EC50 [8]: 10.6 µM | IC50 [2]: 10.6 µM | Activity [3]: Active | IC50 [4]: 11.2 µM | IC50 [5]: > 20 µM | IC50 [6]: 4.31 µM | IC50 [7]: 10.3 µM
